Results from patent US20210380606A1, “5-AZAINDAZOLE DERIVATIVES AS ADENOSINE RECEPTOR ANTAGONISTS” (Merck Patent GmbH, priority 2018, published 2021).
Read-outs that look alike come from different tables or passages of the source.

How the values were obtained:
[1] = biological target: T1, human A2B receptors (Homo sapiens, UniProt P29275); experiment: Functional human A2B receptor activity, recombinant HEK293 cells, cAMP (HTRF); format: cell-based; conditions: read-out: A2B (Category)
T1 construct: expressed in transfected cells; host or cells: HEK293
T1 sequence (P29275 1-332): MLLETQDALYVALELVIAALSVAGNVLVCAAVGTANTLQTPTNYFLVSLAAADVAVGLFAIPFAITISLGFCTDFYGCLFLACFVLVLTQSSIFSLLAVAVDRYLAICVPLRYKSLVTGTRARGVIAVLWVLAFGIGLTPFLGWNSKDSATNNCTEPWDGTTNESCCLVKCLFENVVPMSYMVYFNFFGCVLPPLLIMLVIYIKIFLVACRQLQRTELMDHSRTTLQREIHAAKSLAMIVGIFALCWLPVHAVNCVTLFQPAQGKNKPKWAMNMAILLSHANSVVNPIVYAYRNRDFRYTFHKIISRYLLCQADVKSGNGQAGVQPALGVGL
Description: (§1) The functional activities of human A2A and A2B receptors were determined by quantification of cAMP, being the second messenger for adenosine receptors.
(§2) After a 15 min incubation, HTRF reagents (cAMP dynamic 2, Cis Bio) were added and the cellular cAMP levels were determined using the ENVISION (Perkin Elmer) plate reader.

[2] = biological target: T2, human A2A receptors (Homo sapiens, UniProt P29274); experiment: Functional human A2A receptor activity, recombinant HEK293 cells, cAMP (HTRF); format: cell-based; conditions: read-out: A2A (Category)
T2 construct: expressed in transfected cells; host or cells: HEK293
T2 sequence (P29274 whole entry): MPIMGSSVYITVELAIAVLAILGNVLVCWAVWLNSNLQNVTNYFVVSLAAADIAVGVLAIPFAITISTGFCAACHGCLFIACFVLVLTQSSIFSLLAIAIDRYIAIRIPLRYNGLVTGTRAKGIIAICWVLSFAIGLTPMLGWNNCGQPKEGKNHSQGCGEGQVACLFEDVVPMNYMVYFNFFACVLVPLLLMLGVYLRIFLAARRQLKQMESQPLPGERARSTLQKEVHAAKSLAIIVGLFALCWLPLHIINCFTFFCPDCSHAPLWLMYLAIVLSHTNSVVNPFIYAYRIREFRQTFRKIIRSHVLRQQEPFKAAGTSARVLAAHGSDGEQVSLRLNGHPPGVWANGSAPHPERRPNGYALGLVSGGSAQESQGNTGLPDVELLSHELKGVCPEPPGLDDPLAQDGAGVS
Description: as §1, §2

SMILES | IC50 [1] | IC50 [2] | IC50 ([1]; recombinant HEK293 cells expressing human A2B receptor, agonist NECA, cAMP HTRF, 15 min incubation) | IC50 ([2]; recombinant HEK293 cells expressing human A2A receptor, agonist NECA, cAMP HTRF, 15 min incubation)
COCn1nc(-c2cnc3ccc(F)cn23)c2cnc(C(=O)N3CCCCCC3)cc21 [Compound 6, Azepan-1-yl-[3-(6-fluoro-imidazo[1,2-a]pyridin-3-yl)-1-methoxymethyl-1H-pyrazolo[4,3-c]pyridin-6-yl]-methanone] | < 1000 nM | < 100 nM |  | 
N#CCn1nc(-c2cnc3ccc(F)cn23)c2cnc(C(=O)N3CCCCCC3)cc21 [Compound 7, [6-(Azepane-1-carbonyl)-3-(6-fluoro-imidazo[1,2-a]pyridin-3-yl)-pyrazolo[4,3-c]pyridin-1-yl]-acetonitrile] | < 1000 nM | < 100 nM |  | 
O=C(c1cc2c(cn1)c(-c1cnc3c(F)cc(F)cn13)nn2CC1CC1)N1CCCOCC1 [Compound 9, [1-Cyclopropylmethyl-3-(6,8-difluoro-imidazo[1,2-a]pyridin-3-yl)-1H-pyrazolo[4,3-c]pyridin-6-yl]-1,4-oxazepan-4-yl-methanone] | < 1000 nM | < 100 nM |  | 
CS(=O)(=O)n1nc(-c2cnc3c(F)cc(F)cn23)c2cnc(C(=O)N3CCCOCC3)cc21 [Compound 10, [3-(6,8-Difluoro-imidazo[1,2-a]pyridin-3-yl)-1-methanesulfonyl-1H-pyrazolo[4,3-c]pyridin-6-yl]-1,4-oxazepan-4-yl-methanone] | < 1000 nM | < 100 nM |  | 
N#CCn1nc(-c2coc3ccccc23)c2cnc(C(=O)N3CCCOCC3)cc21 [Compound 13, [3-Benzofuran-3-yl-6-(1,4-oxazepane-4-carbonyl)-pyrazolo[4,3-c]pyridin-1-yl]-acetonitrile] | < 1000 nM | < 100 nM |  | 
CS(=O)(=O)Cn1nc(-c2cnn3ccccc23)c2cnc(C(=O)N3CC4CCC(C4)C3)cc21 [Compound 18, (3-Aza-bicyclo[3.2.1]oct-3-yl)-(1-methanesulfonylmethyl-3-pyrazolo[1,5-a]pyridin-3-yl-1H-pyrazolo[4,3-c]pyridin-6-yl)-methanone] | < 1000 nM | < 100 nM |  | 
CS(=O)(=O)Cn1nc(-c2cnc3c(F)cc(F)cn23)c2cnc(C(=O)N3[C@@H]4CC[C@H]3C[C@@H](O)C4)cc21 [Compound 25, [3-(6,8-Difluoro-imidazo[1,2-a]pyridin-3-yl)-1-methanesulfonylmethyl-1H-pyrazolo[4,3-c]pyridin-6-yl]-(3-endo-hydroxy-8-aza-bicyclo[3.2.1]oct-8-yl)-methanone] | < 100 nM | < 100 nM |  | 
CS(=O)(=O)Cn1nc(-c2cnc3c(F)cc(F)cn23)c2cnc(C(=O)N3CC4CCC(C3)O4)cc21 [Compound 27, [3-(6,8-Difluoro-imidazo[1,2-a]pyridin-3-yl)-1-methanesulfonylmethyl-1H-pyrazolo[4,3 c]pyridin-6-yl]-(8-oxa-3-aza-bicyclo[3.2.1]oct-3-yl)-methanone] | < 1000 nM | < 100 nM |  | 
CC1(O)C2CCC1CN(C(=O)c1cc3c(cn1)c(-c1coc4ccccc14)nn3CS(C)(=O)=O)C2 (stereo not drawn) [Compound 28, (3-Benzofuran-3-yl-1-methanesulfonylmethyl-1H-pyrazolo[4,3-c]pyridin-6-yl)-(8-endo-hydroxy-8-exo-methyl-d3-3-aza-bicyclo[3.2.1]oct-3-yl)-methanone] |  |  | < 100 nM | < 100 nM
CS(=O)(=O)Cn1nc(-c2coc3ccccc23)c2cnc(C(=O)N3CCOCC(F)(F)C3)cc21 [Compound 29, (3-Benzofuran-3-yl-1-methanesulfonylmethyl-1H-pyrazolo[4,3-c]pyridin-6-yl)-(6,6-difluoro-1,4-oxazepan-4-yl)-methanone] | < 1000 nM | < 100 nM |  | 
CC1(O)CCN(C(=O)c2cc3c(cn2)c(-c2coc4ccccc24)nn3CS(C)(=O)=O)CC1 [Compound 32, (3-Benzofuran-3-yl-1-methanesulfonylmethyl-1H-pyrazolo[4,3-c]pyridin-6-yl)-(4-hydroxy-4-methyl-piperidin-1-yl)-methanone] | < 1000 nM | < 100 nM |  | 
CS(=O)(=O)Cn1nc(-c2coc3ccccc23)c2cnc(C(=O)N3CCC(F)(F)CC3)cc21 [Compound 33, (3-Benzofuran-3-yl-1-methanesulfonylmethyl-1H-pyrazolo[4,3-c]pyridin-6-yl)-(4,4-difluoro-piperidin-1-yl)-methanone] | < 1000 nM | < 100 nM |  | 

Now from value to compound, other results behind:

IC50 [1] | IC50 [2] | SMILES | IC50 ([1]; recombinant HEK293 cells expressing human A2B receptor, agonist NECA, cAMP HTRF, 15 min incubation) | IC50 ([2]; recombinant HEK293 cells expressing human A2A receptor, agonist NECA, cAMP HTRF, 15 min incubation)
< 1000 nM | < 100 nM | O=C(c1cc2c(cn1)c(-c1cnc3c(F)cc(F)cn13)nn2CC(F)(F)F)N1CCCCC(O)C1 (racemic) [Compound 134, [3-(6,8-Difluoro-imidazo[1,2-a]pyridin-3-yl)-1-(2,2,2-trifluoro-ethyl)-1H-pyrazolo[4,3-c]pyridin-6-yl]-(3-hydroxy-azepan-1-yl)-methanone] |  | 
< 1000 nM | < 100 nM | C[C@@]1(O)C[C@H]2C[C@@H]1CN2C(=O)c1cc2c(cn1)c(-c1coc3ccccc13)nn2CS(C)(=O)=O (relative stereo) [Compound 31, (3-Benzofuran-3-yl-1-methanesulfonylmethyl-1H-pyrazolo[4,3-c]pyridin-6-yl)-(5-endo-hydroxy-5-exo-methyl-2-aza-bicyclo[2.2.1]hept-2-yl)-methanone] |  | 
< 100 nM | < 100 nM | O=C(c1cc2c(cn1)c(-c1cnc3ccc(F)cn13)nn2CC(F)F)N1CCCCCC1 [Compound 3, Azepan-1-yl-[1-(2,2-difluoro-ethyl)-3-(6-fluoro-imidazo[1,2-a]pyridin-3-yl)-1H-pyrazolo[4,3-c]pyridin-6-yl]-methanone] |  | 
< 1000 nM | < 100 nM | O=C(c1cc2c(cn1)c(-c1cnc3ccc(F)cn13)nn2CCF)N1CCCCCC1 [Compound 4, Azepan-1-yl-[1-(2-fluoro-ethyl)-3-(6-fluoro-imidazo[1,2-a]pyridin-3-yl)-1H-pyrazolo[4,3-c]pyridin-6-yl]-methenone] |  | 
< 1000 nM | < 100 nM | CCCn1nc(-c2cnc3ccc(F)cn23)c2cnc(C(=O)N3CCCCCC3)cc21 [Compound 5, Azepan-1-yl-[3-(6-fluoro-imidazo[1,2-a]pyridin-3-yl)-1-propyl-1H-pyrazolo[4,3-c]pyridin-6-yl]-methanone] |  | 
< 100 nM | < 100 nM | CSCn1nc(-c2cnc3c(F)cc(F)cn23)c2cnc(C(=O)N3CC4CCC(C4)C3)cc21 [Compound 14, (3-Aza-bicyclo[3.2.1]oct-3-yl)-[3-(6,8-difluoro-imidazo[1,2-a]pyridin-3-yl)-1-methylsulfanylmethyl-1H-pyrazolo[4,3-c]pyridin-6-yl]-methanone] |  | 
< 100 nM | < 100 nM | CS(=O)(=O)Cn1nc(-c2cnc3c(F)cc(F)cn23)c2cnc(C(=O)N3CCCOCC3)cc21 [Compound 15, [3-(6,8-Difluoro-imidazo[1,2-a]pyridin-3-yl)-1-methanesulfonylmethyl-1H-pyrazolo[4,3-c]pyridin-6-yl]-1,4-oxazepan-4-yl-methanone] |  | 
< 100 nM | < 100 nM | CS(=O)(=O)Cn1nc(-c2coc3ccccc23)c2cnc(C(=O)N3CCCOCC3)cc21 [Compound 16, (3-Benzofuran-3-yl-1-methanesulfonylmethyl-1H-pyrazolo[4,3-c]pyridine-6-yl)-1,4-oxazepan-4-yl-methanone] |  | 
< 100 nM | < 100 nM | CS(=O)(=O)Cn1nc(-c2cnn3ccccc23)c2cnc(C(=O)N3CCCOCC3)cc21 [Compound 17, (1-Methanesulfonylmethyl-3-pyrazolo[1,5-a]pyridin-3-yl-1H-pyrazolo[4,3-c]pyridin-6-yl)-1,4-oxazepan-4-yl-methanone] |  | 
< 100 nM | < 100 nM | CS(=O)(=O)Cn1nc(-c2coc3ccccc23)c2cnc(C(=O)N3CC4CCC(C4)C3)cc21 [Compound 19, (3-Aza-bicyclo[3.2.1]oct-3-yl)-(3-benzofuran-3-yl-1-methanesulfonylmethyl-1H-pyrazolo[4,3-c]pyridin-6-yl)-methanone] |  | 
< 100 nM | < 100 nM | CS(=O)(=O)Cn1nc(-c2cnc3ccc(F)cn23)c2cnc(C(=O)N3CCCCCC3)cc21 [Compound 20, Azepan-1-yl-[3-(6-fluoro-imidazo[1,2-a]pyridin-3-yl)-1-methanesulfonylmethyl-1H-pyrazolo[4,3-c]pyridin-6-yl]-methanone] |  | 
< 100 nM | < 100 nM | CS(=O)(=O)Cn1nc(-c2cnc3c(F)cc(F)cn23)c2cnc(C(=O)N3CC4CCC(C4)C3)cc21 [Compound 23, (3-Aza-bicyclo[3.2.1]oct-3-yl)-[3-(6,8-difluoro-imidazo[1,2-a]pyridin-3-yl)-1-methanesulfonylmethyl-1H-pyrazolo[4,3-c]pyridin-6-yl]-methanone] |  | 
< 100 nM | < 100 nM | CC1(O)C2CCC1CN(C(=O)c1cc3c(cn1)c(-c1cnc4c(F)cc(F)cn14)nn3CS(C)(=O)=O)C2 (stereo not drawn) [Compound 24, [3-(6,8-Difluoro-imidazo[1,2-a]pyridin-3-yl)-1-methanesulfonylmethyl-1H-pyrazolo[4,3-c]pyridin-6-yl]-(8-endo-hydroxy-8-exo-methyl-3-aza-bicyclo[3.2.1]oct-3-yl)-methanone] |  | 
< 100 nM | < 100 nM | CS(=O)(=O)Cn1nc(-c2coc3ccccc23)c2cnc(C(=O)N3CC4CCC(C3)C4O)cc21 (stereo not drawn) [Compound 30, (3-Benzofuran-3-yl-1-methanesulfonylmethyl-1H-pyrazolo[4,3-c]pyridin-6-yl)-(8-endo-hydroxy-3-aza-bicyclo[3.2.1]oct-3-yl)-methanone] |  | 
